Assay results published in article PMC8951750, “In Vitro Anticancer and Cancer-Preventive Activity of New Triterpene Glycosides from the Far Eastern Starfish Solaster pacificus” (Marine Drugs, 2022).
“And” between values parts separate entries of the source, which are not always exact repeats. Identical values can stand only once. Like-named read-outs stand apart in the source and are kept apart here.

Key:
[1] = system: non-cancerous mouse epidermal cells JB6 Cl41; assay: Cell viability, MTS assay, JB6 Cl41; type: cell-based; details: Mus musculus, JB6 Cl41, 24 h
Description: (§1) MTS assay was used to measure the cell viability of tested normal and cancer cells. Cells were seeded into 96-well plates (“Jet Biofil”, Guangzhou, China) at density of 1.0 × 10^4/200 µL for 24 h at 37 °C in a 5% CO2 incubator. Then, cell monolayer was treated either with DMSO (control) or various concentrations of the triterpene glycosides 1–9 from S. pacificus (0.1, 0.5, 2.5, 12.5, 62.5 µM) in fresh appropriate culture medium for 24 h. Subsequently, the cells were incubated with 15 µL of 3-(4,5-dimethylthiazol-2-yl)-5-(3-carboxymethoxyphenyl)-2-(4-sulfophenyl)-2H-tetrazolium (MTS reagent) (“Promega”, Madison, WI, USA) for 3 h, and the absorbance of each well was measured at 490/630 nm using Power Wave XS microplate reader (“BioTek”, Wynusky, VT, USA). The concentration at which the compounds exert half of their maximal inhibitory effect on cell viability (IC50) was calculated by the AAT-Bioquest® online calculator [39]. The selectivity index (SI) was calculated as described previously using the following formula SI = IC50 of the compounds in normal cell (JB6 Cl41)/IC50 of the same compounds in human melanoma cell lines (SK-MEL-2, SK-MEL-28, or RPMI-7951).

[2] = system: human melanoma cells SK-MEL-2; assay: Cell viability, MTS assay, SK-MEL-2; type: cell-based; details: for SI (selectivity index) SK-MEL-2: IC50 JB6 Cl41 / IC50 SK-MEL-2
Description: as §1

[3] = system: human melanoma cells SK-MEL-28; assay: Cell viability, MTS assay, SK-MEL-28; type: cell-based; details: for IC50: Homo sapiens, SK-MEL-28, 24 h; for SI (selectivity index) SK-MEL-28: IC50 JB6 Cl41 / IC50 SK-MEL-28
Description: as §1

[4] = system: human melanoma cells RPMI-7951; assay: Cell viability, MTS assay, RPMI-7951; type: cell-based; details: for IC50: Homo sapiens, RPMI-7951, 24 h; for SI (selectivity index) RPMI-7951: IC50 JB6 Cl41 / IC50 RPMI-7951
Description: as §1

[5] = system: Human erythrocytes (O(I)+); assay: Hemolysis assay; type: cell-based; details: 1 h, 37 °C, PBS pH 7.4
Description: Human erythrocytes (O(I)+) were obtained from Vladivostok blood transfusion station. Erythrocytes were centrifuged with PBS (pH 7.4) for 5 min at 4 °C by 450× g on a LABOFUGE 400R (Heraeus, Hanau, Germany) centrifuge three times. Then, the residue of erythrocytes was resuspended in ice-cold PBS (pH 7.4) to a final optical density of 2.0 at 700 nm and kept on ice. For the hemolytic assay, 180 µL of erythrocyte suspension was mixed with 20 µL of Cucumarioside A2-2 (positive control) and investigated compounds at concentrations range of 0.1, 0.5, 1, 5, 10 µM in V-bottom 96-well plates. After 1 h of incubation at 37 °C, plates were centrifuged at 900× g for 10 min on an LMC-3000 (Biosan, Riga, Latvia) laboratory centrifuge. Then, we carefully selected 100 µL of supernatant and transferred it to new flat plates, respectively. Lysis of erythrocytes was determined by measuring the concentration of hemoglobin in the supernatant with a microplate photometer Multiskan FC (Thermo Fisher Scientific, Waltham, MA, USA) at 570 nm. The effective dose causing 50% of erythrocytes hemolysis (ED50) was calculated using the computer program SigmaPlot 10.0. All experiments were made in triplicate, p < 0.01.

JB6 Cl41 cells [6] = assay: Soft agar assay, EGF-induced neoplastic cell transformation; type: cell-based, mouse; details: for inhibition at 0.1 µM: Mus musculus, JB6 Cl41, 336 h
Description: (§2) JB6 Cl41 cells (2.4 × 10^4) were exposed to epidermal growth factor (EGF) (1 ng/mL) or phorbol 12-myristate 13-acetate (TPA) (10 ng/mL) and treated either with DMSO (control) or the triterpene glycosides 1–9 from S. pacificus (0.1, 0.5, and 1 µM) in 1 mL of 0.3% basal medium Eagle (BME) agar containing 10% FBS, 2 mM L-glutamine, and 25 µg/mL gentamicin (agar mix). The cultures were maintained in a humidified atmosphere with 5% CO2 at 37 °C for 14 days, and the cell’s colonies were scored using a microscope, Motic AE 20 (XiangAn, Xiamen, China), and the ImageJ software bundled with 64-bit Java 1.8.0_112 (NIH, Bethesda, MD, USA). To determine the effect of investigated compounds on neoplastic cell transformation induced by ionizing radiation (X-ray or UVB), JB6 Cl41 cells (3 × 10^5/dish) were seeded in 60 mm dishes and cultured for 24 h at 37 °C in 5% CO2 incubator. Then, the cells were exposed to X-rays (X-ray system XPERT 80 (KUB Technologies, Inc, Milford, CT, USA)) at dose of 0.5 Gy or UVB (wavelengths below 312 nm) (Bio-Link UV irradiation system, Vilber, France) at dose of 0.3 J/cm^2 three times a week for 3 weeks. Irradiated JB6 Cl41 cells (2.4 × 10^4) were treated either with DMSO (control) or the triterpene glycosides 1–9 from S. pacificus (0.1, 0.5, and 1 µM) in 1 mL of agar mix. The cultures were maintained in a humidified atmosphere with 5% CO2 at 37 °C for 14 days, and the cell’s colonies were scored using a microscope, Motic AE 20 (XiangAn, Xiamen 361101, China), and the ImageJ software bundled with 64-bit Java 1.8.0_112 (NIH, Bethesda, MD, USA).

JB6 Cl41 cells [7] = assay: Soft agar assay, TPA-induced neoplastic cell transformation; type: cell-based, mouse; details: for inhibition at 0.1 µM: Mus musculus, JB6 Cl41, 336 h
Description: as §2

JB6 Cl41 cells [8] = assay: Soft agar assay, X-ray-induced neoplastic cell transformation; type: cell-based, mouse; details: Mus musculus, JB6 Cl41, 504 h
Description: as §2

JB6 Cl41 cells [9] = assay: Soft agar assay, UVB-induced neoplastic cell transformation; type: cell-based, mouse; details: for inhibition at 0.1 µM: Mus musculus, JB6 Cl41, light or radiation study, 504 h
Description: as §2

SK-MEL-2 cells = assay: Soft agar assay, colony formation of cancer cells; type: cell-based, human; details: compound 0.1 µM, 14 days
Description: SK-MEL-2 cells (2.4 × 10^4) were treated either with DMSO (control) or the triterpene glycosides 1–9 from S. pacificus (0.1 µM) in 1 mL of agar mix. After 14 days, colonies of cancer cells were scored as described above.

[10] = read-out: IC50, cell viability JB6 Cl41, MTS assay, 24 h, normal cells
[11] = Homo sapiens, SK-MEL-2, 24 h, read-out: IC50, cell viability SK-MEL-2, MTS assay, 24 h
[12] = read-out: IC50, cell viability SK-MEL-28, MTS assay, 24 h
[13] = read-out: IC50, cell viability RPMI-7951, MTS assay, 24 h
[14] = read-out: inhibition of X-ray-induced cell transformation (JB6 Cl41 colonies formation), compound 0.1 µM, X-rays 0.5 Gy three times a week for 3 weeks, soft agar

Row | SMILES | IC50 [1, 10] [µM] | IC50 [2, 11] [µM] | IC50 [3, 12] [µM] | SI (selectivity index) SK-MEL-28 [3] | IC50 [4, 13] [µM] | SI (selectivity index) RPMI-7951 [4] | ED50, effective dose causing 50% of erythrocytes hemolysis [5] | inhibition at 0.1 µM (JB6 Cl41 cells [8]; [14]) [%] | decrease of colonies number of SK-MEL-2 cells (colony formation) (SK-MEL-2 cells) [%] | SI (selectivity index) SK-MEL-2 [2] | further results
1 | C=C(C)C1C2CC3(C)C4=CCC5C(C)(C)C(OC6OCC(O)C(O)C6OC6OC(C)C(OC7OC(CO)C(O)C(OC8OC(CO)C(O)C(OC)C8O)C7O)C(O)C6OC6OCC(O)C(O)C6O)CCC5(C)C4CCC13C(=O)O2 [Compound 7, 3β-O-{3-O-methyl-β-D-glucopyranosyl-(1→3)-β-D-glucopyranosyl-(1→4)-[β-D-xylopyranosyl-(1→2)]-β-D-quinovopyranosyl-(1→2)-β-D-xylopyranosyl}-23,24,25,26,27-pentanor-5α-lanosta-7,20(22)-diene-18(16)-lactone] | 8.7 ± 0.07 | 5.6 ± 0.1 | 23 ± 0.07 | 0.3 | 31.4 ± 0.1 | 0.25 | 4.07 ± 0.10 µM | < 15 | 15 | – | inhibition at 0.1 µM (JB6 Cl41 cells [6]; read-out: inhibition of EGF-induced neoplastic transformation of JB6 Cl41 cells, compound 0.1 µM, EGF 1 ng/mL, soft agar, 2 weeks, vs positive control): 20%; inhibition at 0.1 µM (JB6 Cl41 cells [7]; read-out: inhibition of TPA-induced neoplastic transformation of JB6 Cl41 cells, compound 0.1 µM, TPA 10 ng/mL, soft agar, 2 weeks, vs positive control): 33%; inhibition of UVB-induced neoplastic cell transformation (decrease of colonies number) (JB6 Cl41 cells [9]; compound 0.1 µM, UVB 0.3 J/cm^2 three times a week for 3 weeks, soft agar): not effective
2 | COC1C(O)COC(OC2C(O)C(COS(=O)(=O)O)OC(OC3C(C)OC(OC4C(OC5CCC6(C)C7CCC89C(=O)OC(C)(C=CC=C(C)C)C8C(OC(C)=O)CC9(C)C7=CCC6C5(C)C)OCC(O)C4O)C(O)C3O)C2O)C1O [Compound 3, 3β-O-{3-O-methyl-β-D-xylopyranosyl-(1→3)-6-sulfoxy-β-D-glucopyranosyl-(1→4)-β-D-quinovopyranosyl-(1→2)-β-D-xylopyranosyl}-16β-acetoxyholosta-7,22E,24-triene] | 6 ± 0.1 | < 1 | 14.8 ± 0.03 | 0.4 | 27.9 ± 0.09 | 0.22 | 0.72 µM and 0.72 ± 0.05 µM | 26 | 34 | 8.8 | IC50 ([2]; read-out: IC50, cell viability SK-MEL-2, MTS assay, 24 h): 0.68 ± 0.06 µM; inhibition of EGF-induced neoplastic transformation of JB6 Cl41 cells (JB6 Cl41 cells [6]; compound 0.1 µM, EGF 1 ng/mL, soft agar, 2 weeks, vs positive control, 0.1 µM): 70%; inhibition of TPA-induced neoplastic transformation of JB6 Cl41 cells (JB6 Cl41 cells [7]; compound 0.1 µM, TPA 10 ng/mL, soft agar, 2 weeks, vs positive control, 0.1 µM): 36%; inhibition at 0.1 µM (JB6 Cl41 cells [9]; read-out: inhibition of UVB-induced neoplastic cell transformation (decrease of colonies number), compound 0.1 µM, UVB 0.3 J/cm^2 three times a week for 3 weeks, soft agar): 13%
3 | C=C(C)C1C2CC3(C)C4=CCC5C(C)(C)C(OC6OCC(O)C(O)C6OC6OC(C)C(OC7OC(COS(=O)(=O)O)C(O)C(OC8OCC(O)C(OC)C8O)C7O)C(O)C6O)CCC5(C)C4CCC13C(=O)O2 [Compound 9, 3β-O-{3-O-methyl-β-D-xylopyranosyl-(1→3)-6-O-6-sulfoxy-β-D-glucopyranosyl-(1→4)-β-D-quinovopyranosyl-(1→2)-β-D-xylopyranosyl}-23,24,25,26,27-pentanor-5α-lanosta-7,20(22)-diene-18(16)-lactone] | – | – | – | 0.32 | – | 0.23 | 2.85 ± 0.14 µM | – | – | 9.9 | IC50 ([1]; MTS assay, 24 h, normal cells, read-out: IC50, cell viability JB6 Cl41): 7.4 ± 0.8 µM; IC50 ([2]; Homo sapiens, SK-MEL-2, 24 h, MTS assay, 24 h, read-out: IC50, cell viability SK-MEL-2): < 1 µM; IC50 ([2]; MTS assay, 24 h, read-out: IC50, cell viability SK-MEL-2): 0.75 ± 0.03 µM; IC50 ([3]; MTS assay, 24 h, read-out: IC50, cell viability SK-MEL-28): 23.3 ± 0.6 µM; IC50 ([4]; MTS assay, 24 h, read-out: IC50, cell viability RPMI-7951): 32.4 ± 0.08 µM; inhibition at 0.1 µM (JB6 Cl41 cells [6]; compound 0.1 µM, EGF 1 ng/mL, soft agar, 2 weeks, vs positive control, read-out: inhibition of EGF-induced neoplastic transformation of JB6 Cl41 cells): 34%; inhibition at 0.1 µM (JB6 Cl41 cells [7]; compound 0.1 µM, TPA 10 ng/mL, soft agar, 2 weeks, vs positive control, read-out: inhibition of TPA-induced neoplastic transformation of JB6 Cl41 cells): 42%; inhibition at 0.1 µM (JB6 Cl41 cells [8]; compound 0.1 µM, X-rays 0.5 Gy three times a week for 3 weeks, soft agar, read-out: inhibition of X-ray-induced cell transformation (JB6 Cl41 colonies formation)): 28%; inhibition at 0.1 µM (JB6 Cl41 cells [9]; compound 0.1 µM, UVB 0.3 J/cm^2 three times a week for 3 weeks, soft agar, read-out: inhibition of UVB-induced neoplastic cell transformation (decrease of colonies number)): 11%
4 | C=C(C)CCCC1(C)OC(=O)C23CCC4C(=CCC5C(C)(C)C(OC6OCC(OS(=O)(=O)[O-])C(O)C6OC6OC(C)C(OC7OC(CO)C(O)C(OC8OC(CO)C(O)C(OC)C8O)C7O)C(O)C6OC6OCC(O)C(O)C6O)CCC45C)C2(C)CC(=O)C13.[Na+] (stereo not shown) [Cucumarioside A2-2, reference compound] | – | – | – | – | – | – | 0.95 ± 0.04 µM | – | – | – | –
